Test: molar heat capacity at constant pressure; wn = mass fraction of the nth substance listed
Details: 101 kPa, Crystal, Small sample (50 mg) DSC

[W] [tungsten] + [Cu]
molar heat capacity at constant pressure [J/K/mol]
Details | 295.15 K | 373.15 K | 473.15 K | 573.15 K | 673.15 K
w1 = 0.728 | 25.9 | 26.59 | 27.11 | 27.43 | 27.89
w1 = 0.761 | 24.67 | 25.12 | 25.61 | 25.91 | 26.04
w1 = 0.837 | 26.96 | 27.52 | 28.07 | 28.41 | 28.66
w1 = 0.889 | 25.66 | 26.21 | 26.68 | 26.95 | 27.19
w1 = 0.913 | 25.81 | 26.08 | 26.45 | 26.75 | 26.88

— the NIST ThermoML archive (doi:10.1016/j.tca.2012.03.022)
